This note sets out measurements from patent US20100173914A1, “PHARMACEUTICALS, COMPOSITIONS AND METHODS OF MAKING AND USING THE SAME” (priority 2007, published 2010).

What is called Ki is the dissociation constant of the complex between target and ligand, obtained from inhibition or displacement. A low value points to tighter binding.

Assay [1] deals with T1, human adenosine A1 receptors (Homo sapiens, UniProt P30542).
T1 construct: expressed in transfected cells; host or cells: CHO-K1
T1 sequence (P30542 1-326): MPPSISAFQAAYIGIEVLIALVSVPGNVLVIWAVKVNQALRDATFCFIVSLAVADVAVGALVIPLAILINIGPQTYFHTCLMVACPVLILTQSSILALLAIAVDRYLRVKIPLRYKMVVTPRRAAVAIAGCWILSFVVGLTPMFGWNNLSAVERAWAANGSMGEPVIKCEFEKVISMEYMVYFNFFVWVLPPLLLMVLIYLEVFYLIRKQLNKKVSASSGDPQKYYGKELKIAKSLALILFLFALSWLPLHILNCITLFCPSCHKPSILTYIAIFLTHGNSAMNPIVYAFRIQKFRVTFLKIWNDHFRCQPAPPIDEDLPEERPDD
Kind of assay: Adenosine receptor binding: binding affinities at hA1 receptors ([3H]DPCPX displacement). Conditions: displacement of [3H]DPCPX, membranes of CHO-K1 cells transfected with human A1. An excerpt: Adenosine Receptor Binding: Binding Affinities at hA1 Receptors
The compounds were examined in an assay measuring in vitro binding to human adenosine A1 receptors by determining the displacement of the adenosine A1 receptor selective radioligand 8-Cyclopentyl-1,3-dipropylxanthine ([^3H]DPCPX) using standard techniques. See, for example, Lohse M J, et al., (1987), 8-Cyclopentyl-1,3-dipropylxanthine (DPCPX)—a selective high affinity antagonist radioligand for A1 adenosine receptors. Naunyn Schmiedebergs Arch Pharmacol., 336(2):204-10, which is incorporated by reference in its entirety.
Frozen CHO-K1 cells (transfected with a human adenosine A1 recepter expression vector) were homogenized in 130 mL of 50 mM Tris HCl buffer (pH 7.5) containing 10 mM MgCl2, and 0.1 IU/mL adenosine deaminase per pellet using a Ultra-Turrax homogeniser. The resultant homogenate was kept for immediate use in the binding. Binding assays were performed in a total volume of 250 μL, containing [^3H]-DPCPX (3.0 nM), membranes and additional drugs. Total binding was determined using drug dilution buffer (50 mM Tris-HCl pH:7.5, 10 mM MgCl2, 5% DMSO). Non-specific binding was determined using 300 μM N6-cyclohexyladenosine (CHA). Following incubation for 90 minutes at 21° C., assays were terminated by rapid filtration with GF/B filters (presoaked in 0.1% (w/v) polyethylenimine) using a Canberra Packard filtermate 196, washed 3 times with ice-cold Tris-HCl (pH 7.4). Filters were left to dry overnight, and Microscint-0 scintillation fluid was then added to the filters. The filters were then left for at least 2 hours before the radioactivity was assessed using a Canberra Packard TopCount microplate scintillation counter.
To determine the free ligand concentration, three vials were counted with 25 μL of [^3H]DPCPX containing 4 mL of Ultima-Gold MV scintillant on a Beckman LS6500 multi-purpose scintillation counter.
(§1) Data was analysed using a 4 parameter logistical equation and non-linear regression which yields affinity constants (pIC50), and slope parameters:
where E is the quantity of binding and [A] is the competitor concentration. The K, is then determined using the Cheng-Prusoff equation: […]
(In general: In a radioligand displacement assay an active substance lowers the binding of a labelled ligand.)

Assay [2] addresses T2, human adenosine A2A receptors (Homo sapiens, UniProt P29274).
T2 construct: host or cells: HEK-293
Put plainly: Adenosine receptor binding: binding affinities at hA2A receptors ([3H]CGS-21680 displacement). Conditions: for Ki: displacement of [3H]CGS-21680, HEK-293 cell membranes; for A2A/A1 selectivity ratio (Ki A2A/Ki A1): ratio of measured Ki values at hA2A and hA1.
Excerpt: Adenosine Receptor Binding: Binding Affinities at hA2A Receptors
The compounds were examined in an assay measuring in vitro binding to human adenosine A2A receptors by determining the displacement of the adenosine A2A receptor selective radioligand 4-[2-[[6-Amino-9-(N-ethyl-β-D-ribofuranuronamidosyl)-9H-purin-2-yl]amino]ethyl]benzenepropanoic acid hydrochloride ([^3H]CGS-21680) using standard techniques. See, for example, Jarvis et al., J Pharmacol Exp Ther., 251(3):888-93, which is incorporated by reference in its entirety.
Frozen HEK-293 cells were homogenized in 65 mL of 50 mM Tris HCl buffer (pH 7.5) containing 10 mM MgCl2, and 0.1 IU/mL adenosine deaminase per pellet using a Ultra-Turrax homogenizer. The resultant homogenate was kept for immediate use in the binding assay.
Binding assays were performed in a total volume of 250 μL, containing [^3H]-CGS21680 (20.0 nM), membranes and additional drugs. Total binding was determined using drug dilution buffer (50 mM Tris-HCl pH 7.5, 10 mM MgCl2, 5% DMSO). Non-specific binding was determined using 300 μM CHA. Following incubation for 90 minutes at 21° C., assays were terminated by rapid filtration with GF/B filters (presoaked in 0.1% (w/v) polyethylenimine) using a Canberra Packard filtermate 196, washed 3 times with ice-cold Tris-HCl (pH 7.4). Filters were left to dry overnight, and Microscint-0 scintillation fluid was then added to the filters. The filters were then left for at least 2 hours before the radioactivity was assessed using a Canberra Packard TopCount microplate scintillation counter.
To determine the free ligand concentration, three vials were counted with 25 μL of [^3H]CGS21680 containing 4 mL of Ultima-Gold MV scintillant on a Beckman LS6500 multi-purpose scintillation counter.
as §1
where E is the quantity of binding and [A] is the competitor concentration. The Ki is then determined using the Cheng-Prusoff equation: […]

T2 sequence (P29274 whole entry): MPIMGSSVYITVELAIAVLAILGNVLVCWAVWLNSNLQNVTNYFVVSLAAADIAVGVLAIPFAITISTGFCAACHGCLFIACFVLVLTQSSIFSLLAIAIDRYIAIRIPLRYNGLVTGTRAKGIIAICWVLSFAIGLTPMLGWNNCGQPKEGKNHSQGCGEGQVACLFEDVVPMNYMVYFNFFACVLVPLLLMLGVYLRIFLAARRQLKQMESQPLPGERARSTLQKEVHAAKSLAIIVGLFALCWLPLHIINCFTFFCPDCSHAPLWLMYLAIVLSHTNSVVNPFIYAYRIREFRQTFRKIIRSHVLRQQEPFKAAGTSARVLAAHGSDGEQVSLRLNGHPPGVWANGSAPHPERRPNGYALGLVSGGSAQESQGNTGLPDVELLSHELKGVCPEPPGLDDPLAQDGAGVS

For the compound `Cc1cc(Cn2nnc3c(-c4cccs4)nc(N)nc32)ccc1NS(=O)(=O)O` [4-[(5-amino-7-(thiophen-2-yl)-3H-[1,2,3]triazolo[4,5-d]pyrimidin-3-yl)methyl]-2-methylphenylsulfamic acid], the Ki in assay [1] lay within 100 to 1000 nM. Besides, in assay [2], the Ki was not above 100 nM and the “A2A/A1 selectivity ratio (Ki A2A/Ki A1)” value is recorded as “H (more than 20)”.

`COc1ccccc1-c1nc(N)nc2c1nnn2Cc1ccc(C)c(NS(=O)(=O)O)c1` [5-[(5-amino-7-(2-methoxyphenyl)-3H-[1,2,3]triazolo[4,5-d]pyrimidin-3-yl)methyl]-2-methylphenylsulfamic acid]: in assay [1], the Ki fell in the range of 1000 to 10000 nM. Moreover, in assay [2], the Ki fell in the range of 1000 to 10000 nM and the “A2A/A1 selectivity ratio (Ki A2A/Ki A1)” value is listed as “E (less than 5)”.

In assay [1], `COc1cc(Cn2nnc3c(-c4ccc(C)o4)nc(N)nc32)ccc1NS(=O)(=O)O` [4-[(5-amino-7-(5-methylfuran-2-yl)-3H-[1,2,3]triazolo[4,5-d]pyrimidin-3-yl)methyl]-2-methoxyphenylsulfamic acid] showed a Ki of 100 to 1000 nM. For the same compound, in assay [2], the Ki was not above 100 nM and the “A2A/A1 selectivity ratio (Ki A2A/Ki A1)” value is on record as “H (more than 20)”.

For `Nc1nc(-c2ccco2)c2nnn(Cc3ccc(NS(=O)(=O)O)cc3)c2n1` [4-[(5-amino-7-(furan-2-yl)-3H-[1,2,3]triazolo[4,5-d]pyrimidin-3-yl)methyl]phenylsulfamic acid], the values for the inhibitory constant (Ki) in assay [1] and in assay [2] were 1000 to 10000 nM and not above 100 nM, respectively. Besides, the “A2A/A1 selectivity ratio (Ki A2A/Ki A1)” value in assay [2] was “H (more than 20)”.

Compound `Cc1ccc(-c2nc(N)nc3c2nnn3Cc2ccc(C)c(NS(=O)(=O)O)c2)o1` [5-[(5-amino-7-(5-methylfuran-2-yl)-3H-[1,2,3]triazolo[4,5-d]pyrimidin-3-yl)methyl]-2-methylphenylsulfamic acid] displayed a Ki in assay [1] of 100 to 1000 nM. Also, in assay [2], the Ki was not above 100 nM and the “A2A/A1 selectivity ratio (Ki A2A/Ki A1)” value was “H (more than 20)”.

`COc1ccccc1-c1nc(N)nc2c1nnn2Cc1cccc(NS(=O)(=O)O)c1` [3-[(5-amino-7-(2-methoxyphenyl)-3H-[1,2,3]triazolo[4,5-d]pyrimidin-3-yl)methyl]-phenylsulfamic acid]: in assay [1], the Ki was in the range of 1000 to 10000 nM. In assay [2], the Ki is 1000 to 10000 nM and the “A2A/A1 selectivity ratio (Ki A2A/Ki A1)” value is listed as “E (less than 5)”.

For the compound `COc1cc(NS(=O)(=O)O)ccc1Cn1nnc2c(-c3ccc(C)o3)nc(N)nc21`, the Ki is 1000 to 10000 nM in assay [1] and 100 to 1000 nM in assay [2]. Besides, the “A2A/A1 selectivity ratio (Ki A2A/Ki A1)” value in assay [2] is “H (more than 20)”.

The compound `Cc1ccc(Cn2nnc3c(-c4ccco4)nc(N)nc32)cc1NS(=O)(=O)O` [5-[(5-amino-7-(furan-2-yl)-3H-[1,2,3]triazolo[4,5-d]pyrimidin-3-yl)methyl]-2-methylphenylsulfamic acid] came in with a Ki in assay [1] of 100 to 1000 nM. Moreover, in assay [2], the inhibition constant (Ki) is not above 100 nM and the “A2A/A1 selectivity ratio (Ki A2A/Ki A1)” value was “H (more than 20)”.

Turning to `Nc1nc(-c2ccccc2)c2nnn(Cc3cccc(NS(=O)(=O)O)c3)c2n1` [3-[(5-amino-7-phenyl-3H-[1,2,3]triazolo[4,5-d]pyrimidin-3-yl)methyl]-phenylsulfamic acid], the Ki in assay [1] is 1000 to 10000 nM; in assay [2], not above 100 nM. Further, the “A2A/A1 selectivity ratio (Ki A2A/Ki A1)” value in assay [2] is on record as “G (10 to 20)”.

`Nc1nc(-c2ccccc2)c2nnn(Cc3ccc(NS(=O)(=O)O)cc3)c2n1` [4-[(5-amino-7-(phenyl,2,3]triazolo[4,5-d]pyrimidin-3-yl)methyl]phenylsulfamic acid] gave a Ki in assay [1] of 1000 to 10000 nM. In assay [2], the inhibition constant (Ki) lay in the range of 100 to 1000 nM and the “A2A/A1 selectivity ratio (Ki A2A/Ki A1)” value is “G (10 to 20)”.

Turning to `Nc1nc(-c2ccco2)c2nnn(Cc3cccc(NS(=O)(=O)O)c3)c2n1` [3-[(5-amino-7-(furan-2-yl)-3H-[1,2,3]triazolo[4,5-d]pyrimidin-3-yl)methyl]-phenylsulfamic acid], in assay [1], the Ki was in the range of 1000 to 10000 nM. Moreover, in assay [2], the Ki was 100 to 1000 nM and the “A2A/A1 selectivity ratio (Ki A2A/Ki A1)” value was “H (more than 20)”.
